Measured values reported in patent US20060182722A1, “Methods and materials for isolating isogenic islet cells” (priority 2005, published 2006).
Where “and” joins values, the source holds several entries; their conditions need not be identical. Equal entries are not always repeated.

Experiments:
[1] = Example 4: sirolimus whole blood trough concentration; assay type: in vivo, human
Protocol: Immunosuppression. […] On days 0 through +9 posttransplant, they received a daily 4-mg dose. […] The doses were based on those previously used to treat kidney graft rejection (Woddle et al., Transplantation 1999; 68:608-616). Premedication was with acetaminophen, diphenhydramine, and pentoxifylline. Sirolimus (Rapamune, Wyeth-Ayerst) was initiated orally at a dose of 0.2 mg/kg on day −2, followed by 0.1 mg/kg daily; the dose then was titrated and adjusted to achieve a target whole blood trough level of 5 to 10 ng/mL. Mean trough concentration prior to transplant on day 0 was 6.1±1.7 ng/mL and on day +2 was 6.7±1.9 ng/mL. Reduced-dose tacrolimus (Prograf, Fujisawa) was administered orally to all islet recipients beginning on […] posttransplant at 0.015 mg/kg 2 times per day; the dose was then adjusted to achieve a target whole blood trough level of 3 to 6 ng/mL (Shapiro et al., New Engl. J. Med. 2000; 343:230-238).

[2] = Example 3: immunosuppressant whole blood trough levels; assay type: in vivo, human; conditions: for Drug Exposure: whole blood trough levels, individual recipients #1-#8
Protocol: Maintenance immunosuppression was initiated with sirolimus (0.2 mg/kg starting on day −2, followed by 0.1 mg/kg daily; target whole blood trough levels 5 to 15 ng/mL, as tolerated), and reduced-dose tacrolimus (0.015 mg/kg twice daily, starting on day +1; target whole blood trough levels 3 to 6 ng/mL). At 1 month posttransplant, tacrolimus was gradually replaced with mycophenolate mofetil (MMF; 750 to 1000 mg, twice daily); tacrolimus was either discontinued or dosed to a target trough level of <3 ng/mL. If target levels of sirolimus could not be achieved or maintained, however, tacrolimus (target level, 3 to 6 ng/mL) was continued.
The 5 recipients received daily MMF doses of 1.5 to 2.0 g. They either (a) achieved and maintained sirolimus trough levels >9 ng/mL, with tacrolimus trough levels of 0 to <3 ng/mL, or (b) in the absence of target sirolimus trough levels, tacrolimus trough levels of 3 to 6 ng/mL. The 3 recipients who resumed exogenous insulin therapy had received ≧1.5 g/day of MMF but had subtherapeutic sirolimus trough levels (<9 ng/mL) in the absence of measurable tacrolimus trough levels (<3 ng/mL). Please see Table 5 for immunosuppression.

[3] = Anti-idiotype antibodies by ELISA; assay type: in vivo, human; conditions: all recipients treated
Excerpt: (§1) Monitoring hOKT3γ1 (Ala-Ala). Flow cytometry was used to enumerate CD2^+, CD4^+, CD8^+, CD25^+, and CD69^+ T cells. […] Anti-idiotype antibodies were identified by ELISA, by the use of plate-bound OKT3, or by flow cytometry, in order to measure the blockade of binding of OKT3 fluorescein isothiocyanate to CD3 (Chatenoud, Transplant Proc. 1993; 25:68-73).

[4] = test system: autoreactive and alloreactive T cell responses; conditions: clinical; cited from earlier work
[5] = Monitoring hOKT3γ1 (Ala-Ala): serum levels; assay type: in vivo, human; conditions: table: individual subjects #1-#6, text: mean; for Peak hOKT3γ1 (Ala-Ala) level achieved: serum
Excerpt: as §1

[6] = test system: serum cytokines (IL-10, TNF-α); test: Serum cytokines before and after hOKT3γ1 (Ala-Ala); assay type: in vivo, human
CD3 = target: T1, CD3 (Homo sapiens, UniProt P07766); test: Monitoring hOKT3γ1 (Ala-Ala): coating of the CD3 molecule on PBLs; assay type: in vivo; conditions: table: individual subjects #1-#6, text: mean
T1 construct: endogenous in cells; host or cells: peripheral blood lymphocytes (PBLs) of the treated patients
Excerpt: as §1

[7] = test system: type 1 diabetic recipients; test: Example 3: safety assessments; assay type: in vivo, human; conditions: of 8 recipients; resolved or improved with dose reduction
Protocol: Safety was assessed by monitoring the severity and duration of adverse events. Efficacy was assessed by studying the recipients' insulin requirements, C-peptide levels, oral and intravenous glucose tolerance results, intravenous arginine stimulation responses, and HbA1c levels. Safety Assessments. Recipients underwent clinical, laboratory, and diagnostic safety assessments daily during their transplant hospitalization and at each of their 19 posttransplant study visits. Portal pressure was monitored during the transplant procedure. On days +1 and +7, ultrasonographic examination was done of the right upper quadrant including Doppler examination of the portal venous system. The severity and duration of any adverse events were monitored and recorded. Laboratory tests assessed hematology, chemistry, liver transaminases, lipids, standard creatinine clearance, and urinary albumin excretion. Adverse events were graded per the National Cancer Institute's Common Toxicity Criteria, Version 2.0.

T1D patients = test: Example 4: safety assessments; parameters: species or system human; conditions: in vivo
Excerpt: Safety assessments. Recipients underwent clinical, laboratory, and diagnostic safety assessments. Daily during their transplant hospitalization and at each of their 23 posttransplant study visits, the severity and duration of any adverse events were monitored and recorded. Laboratory tests included hematology, chemistry, liver transaminases, lipids, standard creatinine clearance, and urinary albumin excretion. Adverse events were graded based on the National Cancer Institute's Common Toxicity Criteria, Version 2.0.

[8] = the 3 recipients who resumed exogenous insulin therapy

T1 sequence (P07766 23-207): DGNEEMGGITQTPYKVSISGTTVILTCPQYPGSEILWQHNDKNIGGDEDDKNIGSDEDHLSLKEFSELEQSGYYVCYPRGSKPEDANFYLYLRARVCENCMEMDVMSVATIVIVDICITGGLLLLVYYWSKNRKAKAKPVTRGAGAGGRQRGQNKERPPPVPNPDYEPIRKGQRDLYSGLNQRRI
T1 sequence (P09693 23-182 partner): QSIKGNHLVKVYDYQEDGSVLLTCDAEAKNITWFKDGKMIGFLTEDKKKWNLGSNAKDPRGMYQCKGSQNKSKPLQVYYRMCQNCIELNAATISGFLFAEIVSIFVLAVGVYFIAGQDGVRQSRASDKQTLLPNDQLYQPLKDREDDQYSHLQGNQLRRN
T1 sequence (P04234 22-171 partner): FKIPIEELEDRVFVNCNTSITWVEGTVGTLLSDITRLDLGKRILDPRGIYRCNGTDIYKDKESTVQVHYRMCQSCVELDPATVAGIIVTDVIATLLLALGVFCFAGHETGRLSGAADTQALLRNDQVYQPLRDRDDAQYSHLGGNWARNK
T1 sequence (P20963 22-164 partner): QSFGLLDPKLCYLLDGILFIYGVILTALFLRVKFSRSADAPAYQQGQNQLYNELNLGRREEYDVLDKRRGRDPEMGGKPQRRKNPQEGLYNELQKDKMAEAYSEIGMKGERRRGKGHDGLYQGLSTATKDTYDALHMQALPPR

`CO[C@H]1C[C@@H]2CC[C@@H](C)[C@@](O)(O2)C(=O)C(=O)N2CCCC[C@H]2C(=O)O[C@H]([C@H](C)C[C@@H]2CC[C@@H](O)[C@H](OC)C2)CC(=O)[C@H](C)/C=C(\C)[C@@H](O)[C@@H](OC)C(=O)[C@H](C)C[C@H](C)/C=C/C=C/C=C/1C` [Sirolimus, sirolimus] showed a Mean trough concentration ([1]; day +2) of 6.7 ± 1.9 ng/mL, a Mean trough concentration ([1]; prior to transplant on day 0) of 6.1 ± 1.7 ng/mL and a Trough levels ([2]; recipients with sustained insulin independence, case (a)) of over 9 ng/mL. The Trough levels [2, 8] was under 9 ng/mL and the “Drug Exposure” value [2] was 4-8 ng/ml and >9 ng/ml (3×) and 2-3 ng/ml and 7-9 ng/ml and 4-9 ng/ml and 6-8 ng/ml.

In the case of “hOKT3γ1 (Ala-Ala): humanized anti-CD3 antibody retaining the binding region of OKT3; human IgG1 Fc mutated to prevent binding to the Fc receptor”, the Anti-idiotype antibodies [3] is given as “Absence of anti-idiotype antibodies”, the Kidney graft rejection [4] is given as “reversed kidney graft rejection” and the “Side effects compared with the parental OKT3 antibody” value [4] is given as “markedly fewer side effects”. The “Peak hOKT3γ1 (Ala-Ala) level achieved” value [5] was 1196 ± 821 ng/mL, the “Peak hOKT3γ1 (Ala-Ala) level achieved” value ([5]; listed as hOKT3γ1 (Ala—Ala)) was 872 ng/mL and 450 ng/mL and 1028 ng/mL and 736 ng/mL and 2761 ng/mL and 1330 ng/mL and the “Days to negative hOKT3γ1 (Ala-Ala) level after last dose” value [5] was 61 ± 32 days. For the same molecule, the “Days to negative hOKT3γ1 (Ala-Ala) level after last dose” value ([5]; listed as hOKT3γ1 (Ala—Ala)) was 91 days and 111 days and 47 days and 50 days and 33 days and 34 days, the “Mean peak serum TNF-α after administration” value ([6]; 29.9±31.7 pg/mL prior to administration) was 267.6 ± 120.3 pg/mL and the “Serum IL-10 levels after administration compared with pre-dosing levels” value ([6]; all participants) was “increased in all participants”. For the same molecule, the “Duration >80% CD3 coating (Total # of days)” value (CD3) was 4.8 ± 2.6 days, the “Time to 80% CD3 coating (# of days)” value (CD3) was 7.3 ± 2.9 days and the “Duration >80% CD3 coating (Total # of days)” value (CD3; listed as hOKT3γ1 (Ala—Ala)) was 4 days (2×) and 3 days and 2 days and 8 days (2×). For the same molecule, the “Time to 80% CD3 coating (# of days)” value (CD3; listed as hOKT3γ1 (Ala—Ala)) was 9.5 days and 8.5 days and 11.5 days and 4.5 days (2×) and 5.5 days.

With `COc1c(C)c2c(c(O)c1C/C=C(\C)CCC(=O)OCCN1CCOCC1)C(=O)OC2` [MMF, mycophenolate mofetil] the “Recipients with transient diarrhea after beginning MMF therapy” value [7] was 6.

With `C[C@@H]1[C@H](O)[C@@H](C)/C=C/C=C/CC/C=C/C=C/C=C/C=C/C(O[C@H]2O[C@H](C)[C@@H](O)[C@H](N)[C@@H]2O)CC2O[C@](O)(CC(O)C(O)CCC(O)CC(O)CC(O)CC(=O)O[C@H]1C)CC(O)C2C(=O)O` (stereo partly shown) [nystatin] the “Serious adverse event determined to be related to treatment” value (T1D patients) was “generalized rash”.

For `C=CC[C@@H]1/C=C(\C)C[C@H](C)C[C@H](OC)[C@H]2O[C@@](O)(C(=O)C(=O)N3CCCC[C@H]3C(=O)O[C@H](/C(C)=C/[C@@H]3CC[C@@H](O)[C@H](OC)C3)[C@H](C)[C@@H](O)CC1=O)[C@H](C)C[C@@H]2OC` [Tacrolimus, tacrolimus], the Trough levels [2, 8] was under 3 ng/mL and the “Drug Exposure” value [2] was 0 ng/ml (2×) and 4-5 ng/ml and 4-6 ng/ml and <3 ng/ml and 3 ng/ml.
